Laboratory results published in patent US9512120B2, “Microbicidally active imidazopyridine derivatives” (Syngenta Participations AG, priority 2013, dated 2016).

Key:
[1] = system: Mycosphaerella arachidis (Cercospora arachidicola); assay: Mycosphaerella arachidis (Cercospora arachidicola) / liquid culture (early leaf spot); assay type: cell-based; conditions: PDB, 24° C., 4-5 days after application, read-out: control of Mycosphaerella arachidis (inhibition of growth, photometric)
Method in brief: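 Conidia suspended in potato dextrose broth and added to test compound from DMSO solution at 200 ppm. Incubated at 24 °C; growth inhibition read photometrically 4-5 days after application.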

[2] = system: Glomerella lagenarium (Colletotrichum lagenarium); assay: Glomerella lagenarium (Colletotrichum lagenarium) / liquid culture (anthracnose); assay type: cell-based; conditions: Colletotrichum orbiculare, PDB, 24° C., 3-4 days after application, read-out: control of Glomerella lagenarium (inhibition of growth, photometric)
Method in brief: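 Cryopreserved conidia suspended in potato dextrose broth were added to compound in DMSO applied at 200 ppm. Plates incubated at 24° C; growth inhibition read photometrically 3-4 days after application.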

[3] = system: Thanatephorus cucumeris (Rhizoctonia solani); assay: Thanatephorus cucumeris (Rhizoctonia solani) / liquid culture (foot rot, damping-off); assay type: cell-based; conditions: PDB, 24° C., 3-4 days after application, read-out: control of Thanatephorus cucumeris (inhibition of growth, photometric)
Method in brief: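 Mycelial fragments in potato dextrose broth exposed to test compounds at 200 ppm (from DMSO solution), incubated at 24° C. Growth inhibition read photometrically 3-4 days after application.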

[4] = system: Botryotinia fuckeliana (Botrytis cinerea); assay: Botryotinia fuckeliana (Botrytis cinerea) / liquid culture (gray mould); assay type: cell-based; conditions: Vogels broth, 24° C., 3-4 days after application, read-out: control of Botryotinia fuckeliana (inhibition of growth, photometric)
Method in brief: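 Botrytis cinerea conidia in Vogels broth were added to test compound applied from DMSO at 200 ppm. Incubation at 24 °C; growth inhibition read photometrically 3-4 days after application.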

[5] = system: Sclerotinia sclerotiorum; assay: Sclerotinia sclerotiorum liquid culture (cottony rot / white mold); assay type: cell-based; conditions: PDB, 24° C., 3-4 days after application, read-out: control of Sclerotinia sclerotiorum (inhibition of growth, photometric)
Method in brief: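 Mycelia fragments of Sclerotinia sclerotiorum in potato dextrose broth were added to compound in DMSO. Cultures incubated at 24° C; growth inhibition determined photometrically 3-4 days after application.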

[6] = system: Mycosphaerella graminicola (Septoria tritici); assay: Mycosphaerella graminicola (Septoria tritici) / liquid culture (Septoria blotch); assay type: cell-based; conditions: Zymoseptoria tritici, PDB, 24° C., 4-5 days after application, read-out: control of Mycosphaerella graminicola (inhibition of growth, photometric)
Method in brief: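 Cryo-stored conidia in potato dextrose broth were added to compound in DMSO at 200 ppm in microtiter plates. Plates were incubated at 24 °C and growth inhibition was measured photometrically 4–5 days after application.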

[7] = system: Monographella nivalis (Microdochium nivale); assay: Monographella nivalis (Microdochium nivale) / liquid culture (foot rot cereals); assay type: cell-based; conditions: PDB, 24° C., 4-5 days after application, read-out: control of Monographella nivalis (inhibition of growth, photometric)
Method in brief: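 Cryostored conidia in potato dextrose broth were added to test compound dispensed from DMSO at 200 ppm. Plates were kept at 24° C, and growth inhibition was read photometrically 4-5 days after application.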

[8] = system: Puccinia recondita f. sp. Tritici; assay: Puccinia recondita f. sp. tritici / wheat / leaf disc preventative (brown rust); assay type: in vivo; conditions: foliar, wheat leaf segments cv Kanzler, inoculated 1 day after application, assessed 7-9 days after application, read-out: control of Puccinia recondita f. sp. Tritici (percent disease control compared to untreated)
Method in brief: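 Leaf segments of wheat cv Kanzler on agar were sprayed with formulated compound at 200 ppm and inoculated with spores 1 day later. Incubation was at 19° C, 75% relative humidity and 12/12 h light/dark. Activity was scored 7-9 days after application as percent disease control versus untreated.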

[9] = system: Pythium ultimum; assay: Pythium ultimum / liquid culture (seedling damping off); assay type: cell-based; conditions: Globisporangium ultimum, potato dextrose broth, 24° C., 2-3 days after application, read-out: control of Pythium ultimum (inhibition of growth, photometric)
Description: Pythium ultimum/Liquid Culture (Seedling Damping Off) Mycelia fragments and oospores of a newly grown liquid culture of the fungus were directly mixed into nutrient broth (potato dextrose broth). After placing a DMSO solution of test compound into a 96-well format microtiter plate at an application rate of 200 ppm, the nutrient broth containing the fungal mycelia/spore mixture was added. The test plates were incubated at 24° C. and the inhibition of growth was determined photometrically 2-3 days after application.

[10] = system: Phaeosphaeria nodorum (Septoria nodorum); assay: Phaeosphaeria nodorum (Septoria nodorum) / wheat / leaf disc preventative (glume blotch); assay type: in vivo; conditions: Parastagonospora nodorum, foliar, wheat leaf segments cv Kanzler, inoculated 2 days after application, assessed 5-7 days after application, read-out: control of Phaeosphaeria nodorum (percent disease control compared to untreated)
Method in brief: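 Wheat leaf segments (cv Kanzler) on agar sprayed with compound at 200 ppm, inoculated with spores 2 days later. Incubated at 20° C., 75% relative humidity, 12/12 h light/dark; percent disease control versus untreated scored 5-7 days after application.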

[11] = system: Pyrenophora teres; assay: Pyrenophora teres / barley / leaf disc preventative (net blotch); assay type: in vivo; conditions: foliar, barley leaf segments cv Hasso, inoculated two days after application, assessed 5-7 days after application, read-out: control of Pyrenophora teres (disease control compared to untreated)
Method in brief: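 Barley cv Hasso leaf segments on agar sprayed with compound at 200 ppm, inoculated with spores two days later. Kept at 20 °C, 65% RH, 12/12 h light; disease control versus untreated scored 5-7 days after application.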

[12] = system: Gaeumannomyces graminis; assay: Gaeumannomyces graminis / liquid culture (take-all of cereals); assay type: cell-based; conditions: PDB, 24° C., 4-5 days after application, read-out: control of Gaeumannomyces graminis (inhibition of growth, photometric)
Method in brief: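 Mycelial fragments in potato dextrose broth were exposed to compound from DMSO at 200 ppm in microtiter plates. Incubation at 24 °C; growth inhibition read photometrically 4-5 days after application.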

[13] = system: Plasmopara viticola; assay: Plasmopara viticola / grape / leaf disc preventative; assay type: in vivo; conditions: foliar, grape vine leaf disks, inoculated 1 day after application, assessed 6-8 days after application, read-out: control of Plasmopara viticola (percent disease control compared to untreated)
[14] = system: Blumeria graminis f. Sp. Tritici (Erysiphe graminis f. Sp. Tritici); assay: Blumeria graminis f. sp. tritici / wheat / leaf disc preventative (powdery mildew on wheat); assay type: in vivo; conditions: foliar, wheat leaf segments cv. Kanzler, inoculated 1 day after application, assessed 6-8 days after application, read-out: control of Blumeria graminis (percent disease control compared to untreated)
Description: Blumeria graminis f. Sp. Tritici (Erysiphe graminis f. Sp. Tritici)/Wheat/Leaf Disc Preventative (Powdery Mildew on Wheat):
Wheat leaf segments cv. Kanzler were placed on agar in a 24-well plate and sprayed with the formulated test compound diluted in water at an application rate of 200 ppm. The leaf disks were inoculated by shaking powdery mildew infected plants above the test plates 1 day after application. The inoculated leaf disks were incubated at 20° C. and 60% relative humidity under a light regime of 24 h darkness followed by 12 h/12 h (dark/light) in a climate chamber and the activity of a compound was assessed as percent disease control compared to untreated when an appropriate level of disease damage appears on untreated check leaf segments (6-8 days after application). The following compounds gave at least 80% control of Blumeria graminis at 200 ppm when compared to untreated control leaf disks under the same conditions, which show extensive disease development: 2, 13, 23, 50, 59, 61, 67, 75, 85, 86, 89, 90, 93, 102, 103, 107, 134, 136, 137, 138, 139, 141, 145, 151, 153, 154, 163, 173, 174

| melting point [°C] | SMILES | inhibition at 20 ppm [1] [%] | inhibition at 20 ppm [2] [%] | inhibition at 20 ppm [3] [%] | inhibition at 20 ppm [4] [%] | inhibition at 20 ppm [5] [%] | inhibition at 20 ppm [6] [%] | inhibition at 20 ppm [7] [%] | pest or weed control at 200 ppm [8] [%] | inhibition at 20 ppm [9] [%] | pest or weed control at 200 ppm [10] [%] | pest or weed control at 200 ppm [11] [%] | inhibition at 20 ppm [12] [%] | pest or weed control at 200 ppm [13] [%] | pest or weed control at 200 ppm [14] [%] |
| --- | --- | --- | --- | --- | --- | --- | --- | --- | --- | --- | --- | --- | --- | --- | --- |
| – | CCn1c(-n2ncnc2N)nc2cncc(-c3ccccc3Cl)c21 [Compound 33, 2-[7-(2-chlorophenyl)-1-ethylimidazo[4,5-c]pyridin-2-yl]-1,2,4-triazol-3-amine] | ≥ 80 | ≥ 80 | ≥ 80 | ≥ 80 | ≥ 80 | ≥ 80 | ≥ 80 | ≥ 80 | ≥ 80 | ≥ 80 | ≥ 80 | – | – | – |
| – | CCn1c(-n2ncnc2N)nc2cncc(-c3cc(F)ccc3F)c21 [Compound 39, 2-[7-(2,5-difluorophenyl)-1-ethylimidazo[4,5-c]pyridin-2-yl]-1,2,4-triazol-3-amine] | ≥ 80 | ≥ 80 | ≥ 80 | ≥ 80 | ≥ 80 | ≥ 80 | ≥ 80 | – | ≥ 80 | ≥ 80 | ≥ 80 | ≥ 80 | – | – |
| – | CCn1c(-n2ncnc2N)nc2cncc(-c3ccoc3)c21 [Compound 55, 2-[1-ethyl-7-(furan-3-yl)imidazo[4,5-c]pyridin-2-yl]-1,2,4-triazol-3-amine] | ≥ 80 | ≥ 80 | ≥ 80 | ≥ 80 | – | ≥ 80 | ≥ 80 | ≥ 80 | ≥ 80 | ≥ 80 | ≥ 80 | ≥ 80 | – | – |
| – | CCCc1cncc2nc(-n3ncnc3N)n(CC)c12 [Compound 73, 2-(1-ethyl-7-propylimidazo[4,5-c]pyridin-2-yl)-1,2,4-triazol-3-amine] | ≥ 80 | – | ≥ 80 | ≥ 80 | ≥ 80 | ≥ 80 | ≥ 80 | ≥ 80 | ≥ 80 | ≥ 80 | ≥ 80 | ≥ 80 | – | – |
| 159 to 171 | CCn1c(-n2ncnc2N)nc2cncc(C(C)=NOCc3ccccc3F)c21 [Compound 137] | – | ≥ 80 | ≥ 80 | ≥ 80 | ≥ 80 | ≥ 80 | ≥ 80 | ≥ 80 | – | ≥ 80 | ≥ 80 | ≥ 80 | ≥ 80 | ≥ 80 |
| – | CCn1c(-n2ncnc2N)nc2cncc(C(C)=NOCc3ccc(C)cc3)c21 [Compound 139] | ≥ 80 | ≥ 80 | ≥ 80 | ≥ 80 | ≥ 80 | ≥ 80 | ≥ 80 | ≥ 80 | – | – | ≥ 80 | ≥ 80 | ≥ 80 | ≥ 80 |
| – | CCn1c(-n2ncnc2N)nc2cncc(C(C)=NOCc3ccc(Cl)cc3)c21 [Compound 145] | – | ≥ 80 | ≥ 80 | ≥ 80 | ≥ 80 | ≥ 80 | ≥ 80 | ≥ 80 | – | ≥ 80 | ≥ 80 | – | ≥ 80 | ≥ 80 |
| – | C=C(Cl)CO/N=C(/C)c1cncc2nc(-n3ncnc3N)n(CC)c12 [Compound 151] | – | ≥ 80 | ≥ 80 | ≥ 80 | ≥ 80 | ≥ 80 | ≥ 80 | ≥ 80 | – | ≥ 80 | ≥ 80 | – | ≥ 80 | ≥ 80 |
| – | CCn1c(-n2ncnc2N)nc2cncc(/C(C)=N/OC/C=C(\C)Cl)c21 [Compound 154, 2-[7-[(E)-N-[(E)-3-chlorobut-2-enoxy]-C-methyl-carbonimidoyl]-1-ethyl-imidazo[4,5-c]pyridin-2-yl]-1,2,4-triazol-3-amine] | – | ≥ 80 | ≥ 80 | ≥ 80 | ≥ 80 | ≥ 80 | – | ≥ 80 | – | – | ≥ 80 | – | ≥ 80 | ≥ 80 |
| – | CCn1c(-n2ncnc2N)nc2cncc(C(C)=NOCc3c(F)c(F)c(F)c(F)c3F)c21 [Compound 163] | ≥ 80 | ≥ 80 | ≥ 80 | ≥ 80 | – | ≥ 80 | – | ≥ 80 | – | – | ≥ 80 | – | ≥ 80 | ≥ 80 |
| – | CCCc1cncc2nc(-n3ncnc3N)n(CCC)c12 [Compound 190, 2-(1,7-dipropylimidazo[4,5-c]pyridin-2-yl)-1,2,4-triazol-3-amine] | – | – | ≥ 80 | ≥ 80 | ≥ 80 | ≥ 80 | ≥ 80 | ≥ 80 | ≥ 80 | ≥ 80 | ≥ 80 | ≥ 80 | – | – |
